Experimental data taken from patent US20230104477A1, “USE OF DEHYDROASCORBIC ACID AGAINST NEMATODE INFECTION IN PLANTS” (Universiteit Gent, priority 2019, published 2023).

Columns and labels:
[1] = test system: root-knot nematode Meloidogyne graminicola; test: Susceptibility assay on rice plants, soil drench; assay type: in vivo; conditions: soil drench 24 h prior to inoculation (AA 20 mM, DHA 20 mM, AO 20 U/mL); twelve days after inoculation; vs control
Description: (§1) M. graminicola originally isolated in the Philippines (Batangas) was cultured on susceptible rice plants. Second stage juveniles (J2s) were extracted using a sieve/tray extraction method and inoculation was done as described in Nahar et al., (2011). For susceptibility assays, at least two independent experiments were carried out, each time including eight plants per treatment. Twelve days after inoculation (dai), roots were stained using acid fuchsine (Nahar et al., 2011) to count galls and number of nematodes in the roots.
(§2) Reduced Ascorbic acid (AA, 20 mM), dehydroascorbic acid (DHA, 20 mM), ascorbate oxidase (AO, 20 U/ml), methyl jasmonate (MeJA, 100 μM), aminooxyacetic acid (AoA, 12.5 mM), diethyldithiocarbamic acid (DIECA, 100 μM) and ethephon (100 μM) were purchased from Sigma and dissolved in water (except MeJA that was first dissolved in a drop of ETOH) to attain the indicated concentration.
For soil application, 6.5 mL of each solution was drenched on the substrate, 24 h prior to nematode inoculation.

Heterodera schachtii = test: Sugar beet tolerance to beet cyst nematode infection after foliar spray; assay type: in vivo; conditions: 250 H. schachtii per plant
Description: Sugar beet—seeds of cv. Amarok were germinated on moist tissue for 4-5 days at 25° C. For longer experiments seedlings were transplanted to polyvinyl-chloride (PVC) tubes containing fine soil particles. All experiments were conducted in a plant growth room at 25° C., with a 16/8 h day/night regime. The plants were fertilized by supplying Hoagland solution as a source of nutrients 3 times a week.
BNC cysts were obtained from Iran and were maintained on sugar beet (cv. Amarok) plants. Cysts were obtained from stock cultures, by washing the infected soil and letting the cysts to float in water. Full cysts with eggs were hand-picked and allowed to dry before setting up for hatching. For second-stage juveniles (J2) to hatch, cysts were placed in 3 mM of […] and transferred to an incubator/shaker at a temperature of 25.5° C. at 70 rpm for 4 days (Kammerhofer et al., 2015). J2 were re-suspended in water and counted under a stereomicroscope. Around 250-300 J2 nematodes were inoculated per plant. One day before and after inoculation, plants were not supplied with any nutrients or water. To investigate the plant tolerance to BCN infection root length, shoot height, fresh root weight as well as the number of cysts were measured at different time points after spraying and/or inoculation. For all experiments, 8 individual plants were used per treatment.
as §2
(§3) For foliar application, all chemicals were dissolved in water and 0.02% (v/v) of Tween20 as a surfactant was added prior to spraying on aerial portions of the rice plants. Control plants were sprayed with distilled water containing 0.02% Tween20. Eight plants per treatment were sprayed until run-off with 6.5 mL of solution (at 24 h prior to nematode inoculation, in cases where infected plants were used). The substrate was covered to avoid direct contact with the roots and/or nematodes.

rice plants = test: Root growth in rice after foliar spray, uninfected conditions; assay type: in vivo, Oryza sativa cv. Nipponbare; conditions: 14-days old rice, foliar spray 20 mM, 12 DAS, vs water control
Description: (§4) Rice—Seeds of wild-type rice Oryza sativa cv. Nipponbare were obtained from USDA (GSOR-100). Seeds were germinated on wet filter paper for 4-5 days at 30° C. and seedlings were then transferred to SAP-substrate (Sand mixed with Absorbent Polymer AquaPerla®, DCM, Belgium) and further grown at 28° C., under a light regime of (day/night) 12/12. Hoagland solution was given as a source of nutrients 3 times a week.
as §2, §3

rice seedlings = test: Evaluation of seedling growth after drenching rice seedlings; assay type: in vivo, Oryza sativa cv. Nipponbare
Description: as §4, §2
3-days old rice seedlings were drenched with 1 mL of AA (20 mM), AO (20 U/mL), DHA (20 mM) or water (H2O) as a negative control. Rice root length and dry root weight as well as the number of embryonic crown roots (ECR) were measured 5 days after drenching.

H2O2 = H2O2 measurements in roots (xylenol orange method); assay type: in vivo, rice; conditions: 20 mM DHA-pretreated plants upon M. graminicola infection, 1 dpi
Description: H2O2 measurements—14 days old rice plants were foliar sprayed with 20 mM DHA and 1 day later, plants were inoculated with Meloidogyne graminicola nematodes (Mg+) or mock inoculated (Mg−). One day after inoculation, samples were collected. Root samples were flash-frozen and ground under liquid nitrogen. Per sample, 100 mg of material was used to execute the xylenol orange method for H2O2 quantification described by Cheeseman (2006). After 5% trichloroacetic acid extraction, and 30 minutes reaction with the ferrous ammonium sulphate/xylenol orange (FOX) reagent, the absorbance was measured at 560 nm. The concentration was calculated by comparison with a standard curve of known H2O2 concentrations. The assay was done with 3 biological replicates, which each consisted of pooled material of 4 plants.

[2] = test system: root-knot nematode M. graminicola; test: Susceptibility assay on rice plants, foliar spray; assay type: in vivo, Meloidogyne graminicola; conditions: foliar spray 24 h prior to inoculation (AA 20 mM, DHA 20 mM, AO 20 U/ml); 12 dai; vs control
Description: as §1, §2, §3

[3] = test system: Phenylalanine ammonia lyase (PAL); test: PAL activity measurements in treated rice plants; assay type: in vivo; conditions: 20 mM DHA foliar spray; for PAL-activity in galls in comparison with uninfected root tips: M. graminicola infected
Description: PAL activity measurements—14 days old rice plants were foliar sprayed with 20 mM DHA and 1 day later, plants were inoculated with Meloidogyne graminicola nematodes (Mg+) or mock inoculated (Mg−). Three or seven days after inoculation, samples were collected. Both galls and systemic tissue (shoots) were collected. Samples were flash-frozen and ground under liquid nitrogen. Per sample, 100 mg of material was used to execute PAL-activity measurement according to Camacho-Cristobal et al. (2002). PAL was assayed by measuring the formation of trans-cinnamic acid at 290 nm. Samples were dissolved in 800 μl of 50 mM sodium phosphate as assay buffer containing 2% (w/v) poly-vinylpolypyrrolidone (PVPP), 2 mM EDTA, 18 mM-mercaptoetanol and 0.1% (v/v) Triton X-100. The homogenate was centrifuged at 8000 rpm, 4° C. for 10 min. In different 2 ml tubes, 135 μl of reaction buffer, 50 μl of 5 mM of L-phenlyalanine, and 20 μl of supernatant were mixed and absorbance at 290 nm was measured before incubation at 40° C. for 30 minutes. Then, 10 μl of hydrochloric acid was added and measurement was again done at the same wavelength. The assay was done with 4 biological replicates, which each consisted of pooled material of 4 plants.

[4] = three-weeks old sugar beet, foliar spray (AA 20 mM, AO 20 U/mL, DHA 20 mM), 4 DAS (3 dai)
[5] = 3-days old rice seedlings drenched with 1 mL (AA 20 mM, DHA 20 mM, AO 20 U/ml), 5 days after drenching, vs water control

`O=C1O[C@H]([C@@H](O)CO)C(=O)C1=O` [DHA, (5R)-5-[(1S)-1,2-dihydroxyethyl]furan-2,3,4(5H)-trione] was tested, and the number of galls [1] was “significantly lower number of galls”, the number of nematodes [1] was “lower number of nematodes” and the root system development (Heterodera schachtii; foliar spray DHA 20 mM, 43 DAS, vs control) was “better developed root system”. The number of cysts (Heterodera schachtii; foliar spray DHA 20 mM, 43 DAS, vs untreated plants) was “significantly lower”, the fresh root weight (Heterodera schachtii; foliar spray, 43 DAS (42 days after inoculation), vs control) was “significantly more fresh root weight” and the root length (Heterodera schachtii; [4]) was “significantly increased”. The root weight (Heterodera schachtii; [4]) was “significantly increased”, the shoot weight (Heterodera schachtii; [4]) was “significantly increased” and the shoot height (Heterodera schachtii; three-weeks old sugar beet, foliar spray (AA 20 mM, AO 20 U/mL, DHA 20 mM), 4 DAS (3 dai), DHA effect not statistically significant) was “positively influenced”. For the same molecule, the root length (rice plants) was “significantly longer roots”, the dry root weight (rice seedlings; [5]) was “significantly higher” and the “number of embryonic crown roots (ECR)” value (rice seedlings; [5]) was “significantly higher”. For the same molecule, the root length (rice seedlings; [5]) was “significantly higher”, the “general appearance of seedlings” value (rice seedlings; rice seedlings drenched with DHA 20 mM) was “looked more vigorous” and the “H2O2 levels in roots” value (H2O2) was “induced”. For the same molecule, the number of galls [2] was “significantly lower number of galls”, the number of nematodes [2] was “lower number of nematodes” and the “PAL-activity in systemic shoot tissues of infected versus uninfected plants” value ([3]; 3 dpi) was “strongly enhanced”. For the same molecule, the “PAL-activity in systemic shoot tissues of infected versus uninfected plants” value ([3]; 7 dpi) was “strongly enhanced”, the “PAL-activity in galls in comparison with uninfected root tips” value ([3]; 3 dpi) was “strongly enhanced” and the “PAL-activity in galls in comparison with uninfected root tips” value ([3]; 7 dpi) was “strongly enhanced”.
